This is an account of results in ChEMBL document CHEMBL1146876, “Structurally diverse 5-substituted pyrimidine nucleosides as inhibitors of Leishmania donovani promastigotes in vitro” (Bioorg Med Chem Lett, 2006).

Structures are written as SMILES.

The test has as its system Leishmania donovani. As to the kind of experiment: Antileishmanial activity against Leishmania donovani LV9 promastigotes by MTT method. The test is classed as functional, organism-based. (In general: Tetrazolium assays rely on reduction of a dye to a coloured formazan, in cell work by metabolically active cells.)
`CCOC(=O)C1=C(N)OC2=C(C(=O)CC(C)(C)C2)C1c1cn([C@H]2C[C@H](O)[C@@H](CO)O2)c(=O)[nH]c1=O` (some centres undefined): it took 7.2 µM to reach half-maximal inhibition (IC50). For the compound `CC(=O)OC[C@H]1O[C@@H](n2cc(C3C(C#N)=C(N)OC4=C3C(=O)CCC4)c(=O)[nH]c2=O)C[C@@H]1OC(C)=O` (some centres undefined), half-maximal inhibition (IC50) required 68.7 µM. For the compound `CC1CC(=O)C2=C(C1)OC(N)=C(C#N)C2c1cn([C@H]2C[C@H](O)[C@@H](CO)O2)c(=O)[nH]c1=O` (some centres undefined), the IC50 (commonly the concentration at which inhibition is half-maximal) is 9.4 µM. `CCOC(=O)/C(C#N)=C/c1cn([C@H]2C[C@H](O)[C@@H](CO)O2)c(=O)[nH]c1=O`: the half-inhibitory concentration (IC50) amounted to 1.9 µM. The value for `O=Cc1cn([C@H]2C[C@H](O)[C@@H](CO)O2)c(=O)[nH]c1=O` was 0.9 µM; that for `N#CC(C#N)=Cc1cn([C@H]2C[C@H](O)[C@@H](CO)O2)c(=O)[nH]c1=O` was 1.5 µM. For `C[C@@H]1[C@H](O)[C@@H](C)/C=C/C=C/C=C/C=C/C=C/C=C/C=C/[C@H](O[C@@H]2O[C@H](C)[C@@H](O)[C@H](N)[C@@H]2O)C[C@@H]2O[C@](O)(C[C@@H](O)C[C@@H](O)[C@H](O)CC[C@@H](O)C[C@@H](O)CC(=O)O[C@H]1C)C[C@H](O)[C@H]2C(=O)O` [AMPHOTERICIN B] the value was 0.1 µM; for `CCOC(=O)C1=C(N)OC2=C(C(=O)CCC2)C1c1cn([C@H]2C[C@H](O)[C@@H](CO)O2)c(=O)[nH]c1=O` (some centres undefined), 10.5 µM; for `CC(=O)OC[C@H]1O[C@@H](n2cc(C3C(C#N)=C(N)OC4=C3C(=O)CC(c3ccccc3)C4)c(=O)[nH]c2=O)C[C@@H]1OC(C)=O` (some centres undefined), 85.9 µM. For the compound `CC1=NN(c2ccccc2)C(=O)/C1=C(\C)c1cn([C@H]2C[C@H](O)[C@@H](CO)O2)c(=O)[nH]c1=O`, 3 µM corresponded to half-maximal inhibition (IC50).

`CC(=O)OC[C@H]1O[C@@H](n2cc(/C=C\C#N)c(=O)[nH]c2=O)C[C@@H]1OC(C)=O` displayed a concentration for half-maximal inhibition (IC50) of over 100 µM. Regarding `CC(=O)OC[C@H]1O[C@@H](n2cc(C=O)c(=O)[nH]c2=O)C[C@@H]1OC(C)=O`, the half-maximal inhibitory concentration (IC50) was over 100 µM.

In the case of `CC(=O)OC[C@H]1O[C@@H](n2cc(C=C(C#N)C#N)c(=O)[nH]c2=O)C[C@@H]1OC(C)=O`, inhibition was half-maximal at 30.1 µM (IC50).

The compound `Cc1cn([C@H]2C[C@H](N=[N+]=[N-])[C@@H](CO)O2)c(=O)[nH]c1=O` [ZIDOVUDINE] showed an IC50 of 3.4 µM. The value for `CC(=O)OC[C@H]1O[C@@H](n2cc(C3C(C#N)=C(N)OC4=C3C(=O)CC(C)C4)c(=O)[nH]c2=O)C[C@@H]1OC(C)=O` (some centres undefined) was over 100 µM; that for `CCOC(=O)/C(C#N)=C/c1cn([C@H]2C[C@H](OC(C)=O)[C@@H](COC(C)=O)O2)c(=O)[nH]c1=O` was 39.1 µM; that for `CC(=O)OC[C@@H]1O[C@H](n2cc(C3C(C#N)=C(N)OC4CC(c5ccc(N(C)C)cc5)CC(=O)C43)c(=O)[nH]c2=O)C[C@H]1OC(C)=O` (some centres undefined) was 100 µM. For `N#C/C=C/c1cn([C@H]2C[C@H](O)[C@@H](CO)O2)c(=O)[nH]c1=O` the value was 92 µM.

On to `N#CC1=C(N)OC2=C(C(=O)CC(c3ccc(F)cc3)C2)C1c1cn([C@H]2C[C@H](O)[C@@H](CO)O2)c(=O)[nH]c1=O` (some centres undefined), for which half-maximal inhibition (IC50) required 8.4 µM.

Consider `N#Cc1cn([C@H]2C[C@H](O)[C@@H](CO)O2)c(=O)[nH]c1=O`, for which the IC50 is over 100 µM.

Compound `CC(=O)OC[C@H]1O[C@@H](n2cc(C3C(C#N)=C(N)OC4=C3C(=O)CC(c3ccc(F)cc3)C4)c(=O)[nH]c2=O)C[C@@H]1OC(C)=O` (some centres undefined) registered an IC50 of 95.3 µM. The compound `COC(=O)/C(C#N)=C/c1cn([C@H]2C[C@H](O)[C@@H](CO)O2)c(=O)[nH]c1=O` came in with an IC50 of 7.3 µM. Take `CC1(C)CC(=O)C2=C(C1)OC(N)=C(C#N)C2c1cn([C@H]2C[C@H](O)[C@@H](CO)O2)c(=O)[nH]c1=O` (some centres undefined): the IC50 was over 100 µM.

Take `CC(=O)OC[C@H]1O[C@@H](n2cc(C3C(C#N)=C(N)OC4=C3C(=O)CC(C)(C)C4)c(=O)[nH]c2=O)C[C@@H]1OC(C)=O` (some centres undefined): the midpoint of inhibition, the IC50, lay at 80.4 µM. For `CN(C)c1ccc(C2CC(=O)C3C(C2)OC(N)=C(C#N)C3c2cn([C@@H]3C[C@@H](O)[C@H](CO)O3)c(=O)[nH]c2=O)cc1` (some centres undefined) the value was 6.2 µM; for `CC(=O)OC[C@H]1O[C@@H](n2cc(/C=C/C#N)c(=O)[nH]c2=O)C[C@@H]1OC(C)=O`, over 100 µM; for `N#CC1=C(N)OC2=C(C(=O)CCC2)C1c1cn([C@H]2C[C@H](O)[C@@H](CO)O2)c(=O)[nH]c1=O` (some centres undefined), 1.4 µM. For `N#CC1=C(N)OC2=C(C(=O)CC(c3ccc(Cl)cc3)C2)C1c1cn([C@H]2C[C@H](O)[C@@H](CO)O2)c(=O)[nH]c1=O` (some centres undefined) the value was over 100 µM; for `CCOC(=O)C1=C(N)OC2=C(C(=O)CC(C)(C)C2)C1c1cn([C@H]2C[C@H](OC(C)=O)[C@@H](COC(C)=O)O2)c(=O)[nH]c1=O` (some centres undefined), over 100 µM; for `N#CC1=C(N)Oc2cc3ccccc3c(O)c2C1c1cn([C@H]2C[C@H](O)[C@@H](CO)O2)c(=O)[nH]c1=O` (some centres undefined), over 100 µM. Compound `CN(C)c1ccc2c(c1)OC(N)=C(C#N)C2c1cn([C@H]2C[C@H](O)[C@@H](CO)O2)c(=O)[nH]c1=O` (some centres undefined) registered a half-maximal inhibitory concentration (IC50) of over 100 µM. On to `N=C(N)c1ccc(OCCCCCOc2ccc(C(=N)N)cc2)cc1` [PENTAMIDINE], for which half-maximal inhibition (IC50) required 6.6 µM. The value for `CC(=O)OC[C@H]1O[C@@H](n2cc(C3C(C#N)=C(N)OC4=C3C(=O)CC(c3ccc(Cl)cc3)C4)c(=O)[nH]c2=O)C[C@@H]1OC(C)=O` (some centres undefined) was 80.2 µM. With `CC(=O)OC[C@H]1O[C@@H](n2cc(C3C(C#N)=C(N)Oc4cc5ccccc5c(O)c43)c(=O)[nH]c2=O)C[C@@H]1OC(C)=O` (some centres undefined), the IC50 is over 100 µM.
